Assay in all cases: NCI tumour cell line growth inhibition, 48 h
For assay [1], the system named is A498 renal.
Assay [2] has as its system KM12 colon.
Assay [3] relates to MALME-3M melanoma.
The subject of assay [4] is NCI-H23 lung.
Assay [5] deals with NCI-H522 lung.
Assay [6] relates to SK-MEL-5 melanoma.
In assay [7] the test system is SK-OV-3 ovarian.
In assay [8] the test system is UACC-257 melanoma.
In assay [9] the test system is SR leukemia.
Assay [10] has as its system SF-539 CNS.

SMILES strings stand for the structures.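 Five concentrations, 48 hours, 96-well plates. Here, GI50 denotes the concentration required for 50% inhibition of growth. TGI marks complete inhibition of growth.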

Our source for the GI50 and TGI values is PubChem BioAssay (NCI).

With `CC(=O)C1=C([O-])C(C)OC1=O.CC(=O)C1=C([O-])C(C)OC1=O.[NH-]C1CCCC[C@H]1[NH-].[Pt+4]` (centres undefined), the GI50 was 15.8 µM in assay [1]; over 100 µM in assay [2]; 48 µM in assay [3]; 47.5 µM in assay [4]; 27.5 µM in [5]; 57.5 µM in assay [6]. For the same molecule, the GI50 in [7] and in assay [8] was over 100 µM each time. Also, the TGI in assay [1], in assay [2], in [3], in assay [4], in assay [5] and in assay [6] was over 100 µM each time. Besides, the TGI in [7] and in [8] was over 100 µM throughout.
In the case of `N#CC1C(N)=NNC12Nc1ccccc1N2` (centres undefined), the GI50 was over 100 µM in assay [2], 4.11 µM in [6], 30 µM in [7] and 6.4 µM in assay [9]. Moreover, the TGI in assay [2] is over 100 µM; in [6], 21.2 µM; in [7] it was over 100 µM; in assay [9], 36.8 µM.
In the case of `Clc1ccc2nc(Oc3ccccc3)cnc2c1`, the GI50 is 8.84 µM in assay [1]; over 100 µM in assay [2]; over 100 µM in assay [3]; over 100 µM in assay [4]; over 100 µM in assay [5]; over 100 µM in [10]. Moreover, the GI50 in assay [6], in assay [7] and in assay [8] was over 100 µM each time. The TGI in assay [1], in assay [2], in [3], in assay [4], in [5] and in [10] was over 100 µM in each case. Moreover, the TGI in assay [6], in assay [7] and in assay [8] was over 100 µM throughout.
In the case of `FC(F)(F)c1ccc2nc(Nc3ccc(Cl)c(Cl)c3)c(-c3ccccc3)nc2c1`, the TGI in [3], in [4], in [10], in assay [9] and in [8] was over 100 µM throughout.
With `CC(=O)OC1C2(CC3N4C(=O)C5(CO)SSC4(CC31O)C(=O)N5C)OC(C)C(C)(C)C2=O` (centres undefined), the GI50 was 0.0352 µM in [1]; 1.16 µM in assay [2]; 0.154 µM in assay [3]; under 0.0371 µM in [4]; 1.33 µM in [5]; 0.139 µM in assay [10]. Also, the GI50 in [6] was 0.0389 µM; in assay [7] it was 0.0745 µM; in assay [8], 0.224 µM. Moreover, the TGI in [1] turned out to be 0.0717 µM; in assay [2], 2.6 µM; in assay [4], 0.0932 µM; in assay [5], 3.17 µM; in [10], 0.215 µM; in assay [6], 0.0947 µM. Moreover, the values for the TGI in [7] and in assay [8] were 0.454 µM and 0.651 µM, respectively.
With `CCO[C@@H]1C2C=CC(C2)[C@H]1[N+](=O)[O-]` (some centres undefined), the TGI in assay [1], in [2], in [3], in [4], in assay [5] and in assay [10] was over 100 µM in each case. The TGI in [6], in [7] and in [8] was over 100 µM throughout.
Turning to `S=c1ssc(Sc2ccccn2)c1Cl`, the GI50 in [2] is 15.5 µM; in assay [4], 17.2 µM; in [5], 6.99 µM; in [10] it was 16 µM; in assay [6], 3.74 µM; in [7], 23.7 µM. Besides, the GI50 was 1.7 µM in assay [9] and 22.2 µM in [8]. Further, the TGI is 28.8 µM in assay [2]; 62.9 µM in [4]; 21.9 µM in assay [5]; 32.1 µM in [10]; 15.3 µM in assay [6]; 47.7 µM in assay [7]. For the same molecule, the TGI came out at 4.64 µM in assay [9] and 57.9 µM in assay [8].
In the case of `Cc1cn2c(/C=N/N/C(N)=N\N)c(-c3ccc(Cl)c([N+](=O)[O-])c3)nc2s1`, the GI50 was 7.58 µM in assay [1]; 1.02 µM in assay [2]; 4.18 µM in assay [4]; 4.58 µM in assay [5]; 0.993 µM in assay [10]; 4.29 µM in [6]. For the same molecule, the values for the GI50 in [7] and in assay [8] were 1.29 µM and 1.41 µM, respectively. For the same molecule, the TGI in [1] turned out to be 21.5 µM; in [2] it was 2.29 µM; in [4], 20 µM; in [5], 32.1 µM; in assay [10], 1.83 µM; in [6], 16.4 µM. Further, the values for the TGI in assay [7] and in assay [8] were 2.78 µM and 4.87 µM, respectively.
For `Cc1cccc(C)c1NC(=O)CCCC(=O)C1CCC/C1=N\NC(=O)C(=O)NN` (centres undefined), the TGI in [1], in assay [2], in [3], in assay [4], in assay [10] and in [6] was over 100 µM each time. In addition, the TGI in [7] and in [8] was over 100 µM each time.
Take `C/C1=C\CC[C@@](C)(O)[C@@H]2CC3[C@@H](OC(=O)C34CC4)[C@@H](O2)[C@H](C)CCC1` (some centres undefined): the GI50 in assay [2] was 21.6 µM; in assay [3], 13.5 µM; in assay [5], 12.7 µM; in [6], 10.6 µM; in [7] it was 55 µM; in [9], 19.9 µM. Also, the GI50 in assay [8] is 20.4 µM. The TGI in assay [2] was 62.2 µM; in assay [3], 39.3 µM; in assay [5] it was 28.5 µM; in assay [6] it was 30.7 µM; in [7], over 100 µM; in assay [9] it was over 100 µM. In assay [8], the TGI is 44.1 µM.
Turning to `CC1CC2(CC[C@@H]1O)OCCO2` (some centres undefined), the TGI in [1], in assay [2], in [3], in assay [4], in assay [5] and in assay [10] was over 100 µM each time. The TGI in [6], in assay [7] and in assay [8] was over 100 µM throughout.
As to `CC1=CC(=O)C(C(C)=Nc2ccccc2Cl)C(=O)O1` (centres undefined), the GI50 in assay [1], in assay [2], in assay [3], in [4], in [5] and in [10] was over 100 µM throughout. The GI50 in [6], in [7] and in assay [8] was over 100 µM each time. The TGI in assay [1], in [2], in assay [3], in [4], in assay [5] and in assay [10] was over 100 µM throughout. Also, the TGI in assay [6], in [7] and in assay [8] was over 100 µM throughout.
Consider `CCOC(=O)c1cnn(-c2ccnc3c(C(F)(F)F)cccc23)c1N`, for which the GI50 in assay [1], in assay [2], in [3], in assay [4], in [5] and in assay [10] was over 100 µM each time. Further, the GI50 in assay [6], in [7] and in [8] was over 100 µM in each case. Moreover, the TGI in assay [1], in [2], in assay [3], in assay [4], in [5] and in assay [10] was over 100 µM in each case. Further, the TGI in [6], in assay [7] and in [8] was over 100 µM in each case.
`Cc1c2ccncc2c(C)c2c1[nH]c1ccc(OC(C)(C)C)cc12`: the TGI is 26.2 µM in assay [1]; 3.31 µM in assay [3]; 24.9 µM in assay [4]; 5.81 µM in assay [5]; 2.93 µM in assay [10]; 4.9 µM in [6]. For the same molecule, the TGI in [7] came to 18.8 µM; in assay [8], 4.01 µM.
As to `CCC1CN2CCc3cc(OC)c(OC)cc3C2CC1CC1c2cc(OC)c(OC)cc2CCN1C(=O)CNC(=O)OC(C)(C)C` (centres undefined), the TGI in assay [1] is 56.2 µM; in assay [2], 11.4 µM; in assay [3], 39.6 µM; in [4], 56.1 µM; in [6], 21 µM; in [7] it was 64.7 µM. Besides, in assay [8], the TGI stood at 60 µM.
With `O=c1cccccc1NCCCCCCCCCNc1cccccc1=O`, the TGI in assay [2] was 33.3 µM; in assay [3], 39.9 µM; in assay [4], 74.6 µM; in assay [5], 52.9 µM; in assay [10], 21.3 µM; in assay [7], 99.8 µM. Also, the values for the TGI in assay [9] and in assay [8] were 45.7 µM and 7.35 µM, respectively.
In the case of `COc1ccc(COCC(Cn2ccnc2)OCc2ccc(C(=O)O)cc2)cc1` (centres undefined), the TGI in [1], in [2], in assay [3], in assay [4], in assay [5] and in assay [10] was over 100 µM in each case. Also, the TGI in [6], in [7] and in assay [8] was over 100 µM in each case.
In the case of `COc1ccc2cc3n(c2c1)CCc1cc(OC)c(OC)cc1-3`, the TGI in assay [1], in assay [2], in assay [4], in assay [5], in assay [10] and in assay [7] was over 100 µM each time. Moreover, in [8], the TGI was over 100 µM.
`CCOC(=O)/C(C#N)=C1\N[C@H](C(=O)OCC)CO1`: the TGI in [2], in assay [3], in [4], in assay [5], in assay [10] and in assay [6] was over 100 µM in each case. The TGI in [9] and in assay [8] was over 100 µM each time.
Regarding `COc1ccc(-c2ccc(/C=N/n3c(COc4ccc(Cl)cc4)n[nH]c3=S)o2)c([N+](=O)[O-])c1`, the GI50 in assay [2] is 8.12 µM; in assay [3] it was 14.1 µM; in assay [4], 13.8 µM; in [5], 25.7 µM; in assay [10] it was 18.6 µM; in assay [7] it was 19.9 µM. In assay [8], the GI50 is 15.9 µM. Besides, the TGI in assay [2] is 41.3 µM; in assay [3], 37 µM; in assay [4], 33.7 µM; in assay [5] it was over 100 µM; in [10], 42.2 µM; in [7], 53.3 µM. The molecule further registered a TGI in [8] of 51.4 µM.
As to `CCOc1ccc(NC(=O)CC2SC(N)=NC2=O)cc1` (centres undefined), the TGI in assay [2], in [3], in assay [4], in assay [6] and in assay [8] was over 100 µM throughout.
Consider `CN(C)c1ccc(C(N)=O)cn1`, for which the TGI in assay [2], in [3], in assay [4], in assay [5], in assay [10] and in assay [6] was over 100 µM each time. Also, the TGI in [9] and in assay [8] was over 100 µM in each case.
Regarding `CCCCCCCCCCCCC(=O)[O-].CCCCCCCCCCCCC(=O)[O-].CCCCCCCCCCCCC(=O)[O-].CCCCCCCCCCCCC(=O)[O-].[Mo+2].[Mo+2]`, the GI50 was 10.9 µM in [2]; 11.4 µM in [3]; 17.9 µM in assay [4]; 13.9 µM in [10]; 15.1 µM in [7]; 5.83 µM in assay [9]. In assay [8], the GI50 was 26.5 µM. For the same molecule, the TGI in assay [2] came to 29.1 µM; in [3] it was 28 µM; in assay [4], 40.6 µM; in assay [10], 29.1 µM; in assay [7], 59.9 µM; in [9], 29.8 µM. The molecule further came in with a TGI in assay [8] of 96.1 µM.
With `CN(C)C(=O)C1CCC(=C2C(=O)OC(C)(C)OC2=O)N1C` (centres undefined), the TGI in [1], in assay [2], in [3], in [4], in assay [5] and in [10] was over 100 µM in each case. The TGI in [6], in assay [7] and in assay [8] was over 100 µM in each case.
